# Data from ChEMBL document CHEMBL5625214, “Synthesis of glycyrrhizin analogues as HMGB1 inhibitors and their activity against sepsis in acute kidney injury” (Eur J Med Chem, 2023).
# The source made the active and inactive calls. The calls are words filed in the database; no cut-off is given here.
# Assays:
# [1] = Cytotoxicity against human WI-38 cells assessed as inhibition of cell viability incubated for 24 hrs by MTT assay; type: toxicity, cell-based
# A549 = test: Cytotoxicity against human A549 cells assessed as inhibition of cell viability incubated for 24 hrs by MTT assay; type: functional, cell-based; settings: A549, 24 h
# [2] = Cytotoxicity against rat H9c2 cells assessed as inhibition of cell viability incubated for 24 hrs by MTT assay; type: toxicity, cell-based
# Huh-7 = test: Cytotoxicity against human Huh-7 cells assessed as inhibition of cell viability incubated for 24 hrs by MTT assay; type: functional, cell-based; settings: Huh-7, 24 h
# [3] = Cytotoxicity against human HK-2 cells assessed as inhibition of cell viability incubated for 24 hrs by MTT assay; type: toxicity, cell-based
# [4] = Cytotoxicity against mouse RAW264.7 cells assessed as cell survival at 30 uM incubated for 24 hrs by MTT assay relative to control; type: toxicity, cell-based; settings: read-out: Activity
# [5] = Cytotoxicity against mouse RAW264.7 cells assessed as cell survival at 60 uM incubated for 24 hrs by MTT assay relative to control; type: toxicity, cell-based; settings: read-out: Activity
# RAW264.7 = test: Inhibition of NO release in mouse RAW264.7 cells incubated for 24 hrs by Griess reagent based assay; type: functional, cell-based; settings: RAW264.7, 24 h
# Mus musculus [6] = test: Anti-septic activity in C57BL/6 mouse model assessed as reversal of LPS-induced disappearance of renal internal brush border structure at 30 mg/kg, ip qd treated for 7 days by H and E staining based analysis; type: functional, organism-based; settings: time 7.0 day
# Mus musculus [7] = test: Anti-septic activity in C57BL/6 mouse model assessed as reversal of LPS-induced kidney injury at 30 mg/kg, ip qd treated for 7 days by H and E staining based analysis; type: functional, organism-based; settings: time 7.0 day
# Mus musculus [8] = test: Anti-septic activity in C57BL/6 mouse model assessed as reversal of LPS-induced inflammatory cell infiltration in renal interstitium at 15 mg/kg, ip qd treated for 7 days by H and E staining based analysis; type: functional, organism-based; settings: time 7.0 day
# Mus musculus [9] = test: Anti-septic activity in C57BL/6 mouse model assessed as reversal of LPS-induced inflammatory cell infiltration in renal interstitium at 30 mg/kg, ip qd treated for 7 days by H and E staining based analysis; type: functional, organism-based; settings: time 7.0 day
# Mus musculus [10] = test: Anti-septic activity in C57BL/6 mouse model assessed as reversal of LPS-induced kidney injury at 15 mg/kg, ip qd treated for 7 days by H and E staining based analysis; type: functional, organism-based; settings: time 7.0 day
# Mus musculus [11] = test: Anti-septic activity in C57BL/6 mouse model assessed as reversal of LPS-induced accumulation of interstitial vacoules in kidney at 30 mg/kg, ip qd treated for 7 days by H and E staining based analysis; type: functional, organism-based; settings: time 7.0 day
# Mus musculus [12] = test: Anti-septic activity in C57BL/6 mouse model assessed as reversal of LPS-induced damage of renal tubules at 15 to 30 mg/kg, ip qd treated for 7 days by H and E staining based analysis; type: functional, organism-based; settings: dose 15-30 mg/kg, time 7.0 day
Structure (SMILES),IC50 at 24 h [1],IC50 (A549),IC50 at 24 h [2],IC50 (Huh-7),IC50 at 24 h [3],"viability at 24 h, 30 µM [4]","viability at 24 h, 60 µM [5]",IC50 (RAW264.7),Activity (Mus musculus [6]),Activity (Mus musculus [7]),Activity (Mus musculus [8]),Activity (Mus musculus [9]),Activity (Mus musculus [10]),Activity (Mus musculus [11]),Activity (Mus musculus [12])
COC(=O)[C@@]1(C)CC[C@]2(C)CC[C@]3(C)C(=CC(=O)[C@@H]4[C@@]5(C)CC[C@H](OCc6cn(C7O[C@H](COC(C)=O)[C@@H](OC(C)=O)[C@H](OC(C)=O)[C@@H]7OC(C)=O)nn6)C(C)(C)C5CC[C@]43C)[C@H]2C1 (stereo partly specified),89.4 µM,23.1 µM,65.3 µM,19.7 µM,57.2 µM,,,,,,,,,,
COC(=O)[C@@]1(C)CC[C@]2(C)CC[C@]3(C)C(=CC(=O)[C@@H]4[C@@]5(C)CC[C@H](OCc6cn(C7O[C@H](COC(C)=O)[C@@H](OC(C)=O)[C@H]7OC(C)=O)nn6)C(C)(C)C5CC[C@]43C)[C@H]2C1 (stereo partly specified),93.9 µM,27.8 µM,77 µM,30.1 µM,59.7 µM,,,,,,,,,,
CC(=O)O[C@H]1[C@H](C)OC(n2cc(COC(=O)[C@@]3(C)CC[C@]4(C)CC[C@]5(C)C(=CC(=O)[C@@H]6[C@@]7(C)CC[C@H](OC(=O)CCc8ccccc8)C(C)(C)C7CC[C@]65C)[C@H]4C3)nn2)C[C@@H]1OC(C)=O (stereo partly specified),> 800 µM,100 µM,406 µM,112 µM,> 800 µM,> 70%,< 70%,30.8 µM,,,,,,,
CC(=O)OC[C@@H]1OC(n2cc(COC(=O)[C@@]3(C)CC[C@]4(C)CC[C@]5(C)C(=CC(=O)[C@@H]6[C@@]7(C)CC[C@H](OC(=O)CCc8ccccc8)C(C)(C)C7CC[C@]65C)[C@H]4C3)nn2)[C@@H](OC(C)=O)[C@H](OC(C)=O)[C@H]1OC(C)=O (stereo partly specified),> 800 µM,207 µM,294 µM,206 µM,398 µM,> 70%,,30.7 µM,,,,,,,
CC1(C)[C@@H](O[C@H]2O[C@H](C(=O)O)[C@@H](O)[C@H](O)[C@H]2O[C@@H]2O[C@H](C(=O)O)[C@@H](O)[C@H](O)[C@H]2O)CC[C@]2(C)[C@H]3C(=O)C=C4[C@@H]5C[C@@](C)(C(=O)O)CC[C@]5(C)CC[C@@]4(C)[C@]3(C)CC[C@@H]12 [GLYCYRRHIZIN],128 µM,80.3 µM,102 µM,65.7 µM,160 µM,> 70%,,20.7 µM,Active,Active,inactive,Active,inactive,Active,Active
CC(=O)OC[C@@H]1OC(n2cc(COC(=O)[C@@]3(C)CC[C@]4(C)CC[C@]5(C)C(=CC(=O)[C@@H]6[C@@]7(C)CC[C@H](OC(=O)CCc8ccccc8)C(C)(C)C7CC[C@]65C)[C@H]4C3)nn2)[C@@H](OC(C)=O)[C@H]1OC(C)=O (stereo partly specified),348 µM,92.8 µM,330 µM,91.3 µM,557 µM,> 70%,< 70%,46.2 µM,,,,,,,
CC(=O)OC[C@@H]1OC(n2cc(COC(=O)[C@@]3(C)CC[C@]4(C)CC[C@]5(C)C(=CC(=O)[C@@H]6[C@@]7(C)CC[C@H](OC(=O)CCc8ccccc8)C(C)(C)C7CC[C@]65C)[C@H]4C3)nn2)[C@H](OC(C)=O)[C@H](OC(C)=O)[C@@H]1OC(C)=O (stereo partly specified),590 µM,108 µM,> 800 µM,174 µM,> 800 µM,> 70%,,40.8 µM,,,,,,,
COC(=O)[C@@]1(C)CC[C@]2(C)CC[C@]3(C)C(=CC(=O)[C@@H]4[C@@]5(C)CC[C@H](OCc6cn(C7O[C@H](COC(C)=O)[C@@H](OC(C)=O)[C@H](OC(C)=O)[C@H]7OC(C)=O)nn6)C(C)(C)C5CC[C@]43C)[C@H]2C1 (stereo partly specified),105 µM,32.7 µM,87.8 µM,23.5 µM,56.1 µM,,,,,,,,,,
COC(=O)[C@@]1(C)CC[C@]2(C)CC[C@]3(C)C(=CC(=O)[C@@H]4[C@@]5(C)CC[C@H](OCc6cn(C7O[C@H](COC(C)=O)[C@H](OC(C)=O)[C@H](OC(C)=O)[C@H]7OC(C)=O)nn6)C(C)(C)C5CC[C@]43C)[C@H]2C1 (stereo partly specified),96.4 µM,39.4 µM,92.4 µM,28 µM,42.2 µM,,,,,,,,,,
CC(=O)OC[C@@H]1OC(n2cc(COC(=O)[C@@]3(C)CC[C@]4(C)CC[C@]5(C)C(=CC(=O)[C@@H]6[C@@]7(C)CC[C@H](OC(=O)CCc8ccccc8)C(C)(C)C7CC[C@]65C)[C@H]4C3)nn2)[C@@H](OC(C)=O)[C@H](OC(C)=O)[C@@H]1OC(C)=O (stereo partly specified),201 µM,93.4 µM,114 µM,86.2 µM,127 µM,,< 70%,22.8 µM,,,,,,,
